Test results from patent US20260262643A1, “HERBICIDAL BENZOXAZINES” (FMC CORPORATION, priority 2022, published 2026).

Columns and labels:
wheat [1] = experiment: Test C postemergence; format: in vivo, Triticum aestivum; conditions: 10 days
Summary of the method: (§1)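 Pre: seeds in loam/sand, directed soil spray. Post: 1–2 leaf plants, 2–10 cm. Cmpd in non-phytotoxic solvent + surfactant. Greenhouse 10 d; visual rating vs untreated, 0 = none, 100 = complete control.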

ragweed [2] = experiment: Test C preemergence; format: in vivo, Ambrosia artemisiifolia; conditions: 0 to 100 scale (0 no effect, 100 complete control); for Ragweed plant response rating: preemergence
Summary of the method: as §1

soybean [3] = experiment: Test C postemergence; format: in vivo, Glycine max; conditions: 10 days
Summary of the method: as §1

ragweed [4] = experiment: Test C postemergence; format: in vivo, Ambrosia artemisiifolia; conditions: 10 days
Summary of the method: as §1

corn [5] = experiment: Test C preemergence; format: in vivo, Zea mays; conditions: 0 to 100 scale (0 no effect, 100 complete control); for Corn plant response rating: preemergence
Summary of the method: as §1

barnyardgrass [6] = experiment: Test C preemergence; format: in vivo, Echinochloa crusgalli; conditions: 0 to 100 scale (0 no effect, 100 complete control); for Barnyardgrass plant response rating: preemergence
Summary of the method: as §1

horseweed = experiment: Test C postemergence; format: in vivo, Erigeron canadensis; conditions: 10 days
Summary of the method: as §1

ryegrass, Italian [7] = experiment: Test C preemergence; format: in vivo, Lolium multiflorum; conditions: 0 to 100 scale (0 no effect, 100 complete control); for Ryegrass, Italian plant response rating: preemergence
Summary of the method: as §1

green foxtail [8] = experiment: Test C preemergence; format: in vivo, Setaria viridis; conditions: 0 to 100 scale (0 no effect, 100 complete control); for Foxtail, Green plant response rating: preemergence
Summary of the method: as §1

soybean [9] = experiment: Test C preemergence; format: in vivo, Glycine max; conditions: 0 to 100 scale (0 no effect, 100 complete control); for Soybean plant response rating: preemergence
Summary of the method: as §1

barnyardgrass [10] = experiment: Test D flooded paddy test; format: in vivo, Echinochloa crus-galli; conditions: 250 g ai/ha, applied to paddy water, visual rating after 13 to 14 days, scale 0 to 100 (0 no effect, 100 complete control)
Summary of the method: (§2)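 Plants grown to the 2-leaf stage; pots flooded to 3 cm above soil at treatment and held at that depth throughout. Test compounds applied directly to the paddy water. After 13 to 14 days in a greenhouse, response was rated visually versus controls on a 0 (no effect) to 100 (complete control) scale.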

ryegrass, Italian [11] = experiment: Test C postemergence; format: in vivo, Lolium multiflorum; conditions: 10 days
Summary of the method: as §1

pigweed, palmer [12] = experiment: Test C preemergence; format: in vivo, Amaranthus palmeri; conditions: 0 to 100 scale (0 no effect, 100 complete control); for Pigweed, Palmer plant response rating: preemergence
Summary of the method: as §1

green foxtail [13] = experiment: Test C postemergence; format: in vivo, Setaria viridis; conditions: 10 days
Summary of the method: as §1

pigweed, palmer [14] = experiment: Test C postemergence; format: in vivo, Amaranthus palmeri; conditions: 10 days
Summary of the method: as §1

blackgrass [15] = experiment: Test C preemergence; format: in vivo, Alopecurus myosuroides; conditions: 0 to 100 scale (0 no effect, 100 complete control); for Blackgrass plant response rating: preemergence
Summary of the method: as §1

sedge, umbrella = experiment: Test D flooded paddy test; format: in vivo, Cyperus difformis; conditions: 250 g ai/ha, applied to paddy water, visual rating after 13 to 14 days, scale 0 to 100 (0 no effect, 100 complete control)
Summary of the method: as §2

barnyardgrass [16] = experiment: Test C postemergence; format: in vivo, Echinochloa crusgalli; conditions: 10 days
Summary of the method: as §1

galium = experiment: Test C postemergence; format: in vivo, Galium aparine; conditions: 10 days
Summary of the method: as §1

rice = experiment: Test D flooded paddy test; format: in vivo, Oryza sativa; conditions: 250 g ai/ha, applied to paddy water, visual rating after 13 to 14 days, scale 0 to 100 (0 no effect, 100 complete control)
Summary of the method: as §2

corn [17] = experiment: Test C postemergence; format: in vivo, Zea mays; conditions: 10 days
Summary of the method: as §1

blackgrass [18] = experiment: Test C postemergence; format: in vivo, Alopecurus myosuroides; conditions: 10 days
Summary of the method: as §1

oat, wild [19] = experiment: Test C preemergence; format: in vivo, Avena fatua; conditions: 0 to 100 scale (0 no effect, 100 complete control); for Oat, Wild plant response rating: preemergence
Summary of the method: as §1

kochia [20] = experiment: Test C preemergence; format: in vivo, Bassia scoparia; conditions: 0 to 100 scale (0 no effect, 100 complete control); for Kochia plant response rating: preemergence
Summary of the method: as §1

kochia [21] = experiment: Test C postemergence; format: in vivo, Bassia scoparia; conditions: 10 days
Summary of the method: as §1

oat, wild [22] = experiment: Test C postemergence; format: in vivo, Avena fatua; conditions: 10 days
Summary of the method: as §1

wheat [23] = experiment: Test C preemergence; format: in vivo, Triticum aestivum; conditions: 0 to 100 scale (0 no effect, 100 complete control); for Wheat plant response rating: preemergence
Summary of the method: as §1

ducksalad = experiment: Test D flooded paddy test; format: in vivo, Heteranthera limosa; conditions: 250 g ai/ha, applied to paddy water, visual rating after 13 to 14 days, scale 0 to 100 (0 no effect, 100 complete control)
Summary of the method: as §2

[24] = 125 g ai/ha, postemergence, 0 to 100 scale, 0 no effect, 100 complete control
[25] = Postemergence, 500 g ai/ha, visual 0 to 100 scale (0 no effect, 100 complete control)
[26] = Preemergence, 500 g ai/ha, visual rating after 10 days
[27] = 500 g ai/ha, postemergence, 0 to 100 scale (0 no effect, 100 complete control)

## C[C@H]1CN(C(=O)c2cc(-n3cnc(C4CC4)n3)cc3c2OCCO3)c2cccc(Cl)c2O1 [Compound 156]
Wheat [1]; [24]
  Plant response rating, Wheat: 60
Wheat [1]; [25]
  Plant response rating, Wheat: 80
Ragweed [2]; [26]
  Plant response rating, Ragweed: 90
Ragweed [2]; Test C, 125 g ai/ha
  Ragweed plant response rating: 70
Soybean [3]; [24]
  Plant response rating, Soybean: 100
Soybean [3]; [25]
  Plant response rating, Soybean: 100
Ragweed [4]; [24]
  Plant response rating, Ragweed: 80
Ragweed [4]; [25]
  Plant response rating, Ragweed: 100
Corn [5]; [26]
  Plant response rating, Corn: 10
Corn [5]; Test C, 125 g ai/ha
  Corn plant response rating: 0
Barnyardgrass [6]; 125 g ai/ha
  Barnyardgrass plant response rating: 70
Barnyardgrass [6]; [26]
  Plant response rating, Barnyardgrass: 90
horseweed; [24]
  Plant response rating, Horseweed: 50
horseweed; [25]
  Plant response rating, Horseweed: 60
ryegrass, Italian [7]; [26]
  Plant response rating, Ryegrass, Italian: 90
ryegrass, Italian [7]; Test C, 125 g ai/ha
  Ryegrass, Italian plant response rating: 60
Green foxtail [8]; [26]
  Plant response rating, Foxtail, Green: 100
Green foxtail [8]; Test C, 125 g ai/ha
  Foxtail, Green plant response rating: 100
Soybean [9]; [26]
  Plant response rating, Soybean: 100
Soybean [9]; Test C, 125 g ai/ha
  Soybean plant response rating: 80
Barnyardgrass [10]
  Plant response rating, Barnyardgrass (Flood): 40
ryegrass, Italian [11]; [24]
  Plant response rating, Ryegrass, Italian: 50
ryegrass, Italian [11]; [25]
  Plant response rating, Ryegrass, Italian: 90
pigweed, palmer [12]; [26]
  Plant response rating, Pigweed, Palmer: 100
pigweed, palmer [12]; Test C, 125 g ai/ha
  Pigweed, Palmer plant response rating: 100
Green foxtail [13]; [24]
  Plant response rating, Foxtail, Green: 90
Green foxtail [13]; [25]
  Plant response rating, Foxtail, Green: 90
pigweed, palmer [14]; [24]
  Plant response rating, Pigweed, Palmer: 80
pigweed, palmer [14]; [25]
  Plant response rating, Pigweed, Palmer: 100
Blackgrass [15]; [26]
  Plant response rating, Blackgrass: 90
Blackgrass [15]; Test C, 125 g ai/ha
  Blackgrass plant response rating: 50
sedge, umbrella
  Plant response rating, Sedge, Umbrella (Flood): 95
Barnyardgrass [16]; [24]
  Plant response rating, Barnyardgrass: 70
Barnyardgrass [16]; [25]
  Plant response rating, Barnyardgrass: 90
galium; [24]
  Plant response rating, Galium: 100
galium; [25]
  Plant response rating, Galium: 100
rice
  Plant response rating, Rice (Flood): 25
Corn [17]; [24]
  Plant response rating, Corn: 30
Corn [17]; [25]
  Plant response rating, Corn: 50
Blackgrass [18]; [24]
  Plant response rating, Blackgrass: 80
Blackgrass [18]; [25]
  Plant response rating, Blackgrass: 90
oat, wild [19]; [26]
  Plant response rating, Oat, Wild: 40
oat, wild [19]; Test C, 125 g ai/ha
  Oat, Wild plant response rating: 20
Kochia [20]; [26]
  Plant response rating, Kochia: 100
Kochia [20]; Test C, 125 g ai/ha
  Kochia plant response rating: 80
Kochia [21]; [24]
  Plant response rating, Kochia: 80
Kochia [21]; [25]
  Plant response rating, Kochia: 90
oat, wild [22]; [24]
  Plant response rating, Oat, Wild: 20
oat, wild [22]; [25]
  Plant response rating, Oat, Wild: 30
Wheat [23]; [26]
  Plant response rating, Wheat: 30
Wheat [23]; Test C, 125 g ai/ha
  Wheat plant response rating: 10
ducksalad
  Plant response rating, Ducksalad (Flood): 65

## Cc1ccc(-n2cnc(C(C)C)n2)cc1C(=O)N1CC(C(F)(F)F)Oc2c(Cl)cccc21 (single isomer, unassigned) [Compound 291]
Wheat [1]; [24]
  Plant response rating, Wheat: 30
Wheat [1]; [27]
  Plant response rating, Wheat: 70
Ragweed [2]; 500 g ai/ha
  Ragweed plant response rating: 60
Ragweed [2]; Test C, 125 g ai/ha
  Ragweed plant response rating: 40
Soybean [3]; [24]
  Plant response rating, Soybean: 90
Soybean [3]; [27]
  Plant response rating, Soybean: 100
Ragweed [4]; [24]
  Plant response rating, Ragweed: 70
Ragweed [4]; [27]
  Plant response rating, Ragweed: 80
Corn [5]; 500 g ai/ha
  Corn plant response rating: 50
Corn [5]; Test C, 125 g ai/ha
  Corn plant response rating: 30
Barnyardgrass [6]; 500 g ai/ha
  Barnyardgrass plant response rating: 100
Barnyardgrass [6]; Test C, 125 g ai/ha
  Barnyardgrass plant response rating: 100
horseweed; [24]
  Plant response rating, Horseweed: 60
horseweed; [27]
  Plant response rating, Horseweed: 60
ryegrass, Italian [7]; 500 g ai/ha
  Ryegrass, Italian plant response rating: 100
ryegrass, Italian [7]; Test C, 125 g ai/ha
  Ryegrass, Italian plant response rating: 90
Green foxtail [8]; 500 g ai/ha
  Foxtail, Green plant response rating: 100
Green foxtail [8]; Test C, 125 g ai/ha
  Foxtail, Green plant response rating: 100
Soybean [9]; 500 g ai/ha
  Soybean plant response rating: 100
Soybean [9]; Test C, 125 g ai/ha
  Soybean plant response rating: 90
Barnyardgrass [10]
  Plant response rating, Barnyardgrass (Flood): 40
ryegrass, Italian [11]; [24]
  Plant response rating, Ryegrass, Italian: 70
ryegrass, Italian [11]; [27]
  Plant response rating, Ryegrass, Italian: 80
pigweed, palmer [12]; 500 g ai/ha
  Pigweed, Palmer plant response rating: 100
pigweed, palmer [12]; Test C, 125 g ai/ha
  Pigweed, Palmer plant response rating: 100
Green foxtail [13]; [24]
  Plant response rating, Foxtail, Green: 30
Green foxtail [13]; [27]
  Plant response rating, Foxtail, Green: 90
pigweed, palmer [14]; [24]
  Plant response rating, Pigweed, Palmer: 100
pigweed, palmer [14]; [27]
  Plant response rating, Pigweed, Palmer: 100
Blackgrass [15]; 500 g ai/ha
  Blackgrass plant response rating: 70
Blackgrass [15]; Test C, 125 g ai/ha
  Blackgrass plant response rating: 50
sedge, umbrella
  Plant response rating, Sedge, Umbrella (Flood): 95
Barnyardgrass [16]; [24]
  Plant response rating, Barnyardgrass: 30
Barnyardgrass [16]; [27]
  Plant response rating, Barnyardgrass: 90
galium; [24]
  Plant response rating, Galium: 100
galium; [27]
  Plant response rating, Galium: 100
rice
  Plant response rating, Rice (Flood): 0
Corn [17]; [24]
  Plant response rating, Corn: 20
Corn [17]; [27]
  Plant response rating, Corn: 80
Blackgrass [18]; [24]
  Plant response rating, Blackgrass: 0
Blackgrass [18]; [27]
  Plant response rating, Blackgrass: 50
oat, wild [19]; 500 g ai/ha
  Oat, Wild plant response rating: 80
oat, wild [19]; Test C, 125 g ai/ha
  Oat, Wild plant response rating: 60
Kochia [20]; 500 g ai/ha
  Kochia plant response rating: 100
Kochia [20]; Test C, 125 g ai/ha
  Kochia plant response rating: 80
Kochia [21]; [24]
  Plant response rating, Kochia: 90
Kochia [21]; [27]
  Plant response rating, Kochia: 100
oat, wild [22]; [24]
  Plant response rating, Oat, Wild: 50
oat, wild [22]; [27]
  Plant response rating, Oat, Wild: 80
Wheat [23]; 500 g ai/ha
  Wheat plant response rating: 50
Wheat [23]; Test C, 125 g ai/ha
  Wheat plant response rating: 30
ducksalad
  Plant response rating, Ducksalad (Flood): 45
